# Like-named read-outs stand apart in the source and are kept apart here.
# Molecular target: T1, human SARM1(50-724) (Homo sapiens, UniProt Q6SZW1)
# T1 construct: 40 nM human SARM1(50-724)
# T1 sequence (Q6SZW1 50-724): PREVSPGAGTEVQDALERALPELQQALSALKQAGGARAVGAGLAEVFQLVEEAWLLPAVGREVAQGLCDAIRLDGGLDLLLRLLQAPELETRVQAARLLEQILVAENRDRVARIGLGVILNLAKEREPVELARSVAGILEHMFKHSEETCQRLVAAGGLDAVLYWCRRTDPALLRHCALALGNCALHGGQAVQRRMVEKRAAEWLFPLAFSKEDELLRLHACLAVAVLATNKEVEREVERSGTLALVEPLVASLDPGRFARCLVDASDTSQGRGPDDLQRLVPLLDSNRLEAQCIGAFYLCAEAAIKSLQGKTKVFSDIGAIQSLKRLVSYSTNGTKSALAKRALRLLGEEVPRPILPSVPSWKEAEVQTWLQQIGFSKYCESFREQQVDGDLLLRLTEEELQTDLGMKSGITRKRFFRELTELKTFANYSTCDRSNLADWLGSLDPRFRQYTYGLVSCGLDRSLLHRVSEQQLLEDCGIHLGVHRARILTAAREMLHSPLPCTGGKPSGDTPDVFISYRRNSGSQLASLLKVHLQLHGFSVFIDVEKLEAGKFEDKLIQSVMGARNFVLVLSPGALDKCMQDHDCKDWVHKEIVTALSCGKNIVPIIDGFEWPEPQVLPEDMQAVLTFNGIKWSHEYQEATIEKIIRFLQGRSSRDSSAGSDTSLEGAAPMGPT
# Test: SARM1 NADase biochemical assay (HPLC peak areas of NAD and NAM)
# Conditions: for IC50: dose-response, 1:3 serial dilution from 100 μM, 40 nM SARM1, 0.3 mM NMN, 20 μM NAD, 60 min rt
# Procedure: The reaction was incubated at room temperature for 60 minutes and quenched with 20 μL of 0.4% formic acid. […] Total run time for each sample was 4 minutes. […] Samples were run at a flow rate of 0.8 mL/min at 55° C. Peak areas of NAD and NAM were determined using OpenLAB CDS (Chem Station edition) software. For dose-response, the compound was diluted serially 1:3 in DMSO and added to the reaction starting at a final compound concentration of 100 μM in 1% DMSO.
# [1] = 50 μM compound, NAD peak area, read-out: Avg NAD % inhibition at 50 μM
# [2] = 50 μM compound, NAM peak area, read-out: Avg NAM % inhibition at 50 μM
Compound,inhibition at 50 µM [1],inhibition at 50 µM [2],IC50,other results
"O=S(=O)(Cc1ccccc1)Nc1ccn(Cc2ccncc2)n1 [Example 71, 1-Phenyl-N-(1-(pyridin-4-ylmethyl)-1H-pyrazol-3-yl)methanesulfonamide]",0 to 50%,0 to 50%,,
"Cc1cnccc1Cn1ccc(NCC(F)(F)F)n1 [Example 84, 1-((3-Methylpyridin-4-yl)methyl)-N-(2,2,2-trifluoroethyl)-1H-pyrazol-3-amine]",,,10 to 100 µM,
"CC(c1ccncc1)c1ccn(CC#N)n1 (single isomer, unassigned) [Example 12b]",,,< 1 µM,
"COc1ccc(C(=O)Nc2ccn(Cc3ccncc3)n2)cc1 [Example 42, 4-Methoxy-N-(1-(pyridin-4-ylmethyl)-1H-pyrazol-3-yl)benzamide]",0 to 50%,0 to 50%,,
"(R)-4-(1-(1-(2,2-Difluoroethyl)-1H-pyrazol-3-yl)ethyl-2,2,2-d3)pyridine and (S)-4-(1-(1-(2,2-Difluoroethyl)-1H-pyrazol-3-yl)ethyl-2,2,2-d3)pyridine [Example 114a]",,,1 to 10 µM,
"O=C(Nc1ccn(Cc2ccncc2)n1)c1ccccc1O [Example 47, 2-Hydroxy-N-(1-(pyridin-4-ylmethyl)-1H-pyrazol-3-yl)benzamide]",0 to 50%,0 to 50%,,
"(S)—N-(2,2-Difluoroethyl)-1-(1-(pyridin-4-yl)ethyl)-1H-pyrazol-3-amine and (R)—N-(2,2-Difluoroethyl)-1-(1-(pyridin-4-yl)ethyl)-1H-pyrazol-3-amine [Example 8b]",,,< 1 µM,
"O=C(Nc1ccn(Cc2ccncc2)n1)c1ccc2c(c1)CCC2 [Example 40, N-(1-(Pyridin-4-ylmethyl)-1H-pyrazol-3-yl)-2,3-dihydro-1H-indene-5-carboxamide]",0 to 50%,0 to 50%,,
"CC(c1ccncc1)n1ccc(NC(C)C(F)(F)F)n1 (racemic) [Example 100, (rac)-1-(1-(Pyridin-4-yl)ethyl)-N-(1,1,1-trifluoropropan-2-yl)-1H-pyrazol-3-amine]",,,1 to 10 µM,
"N#Cc1ccc(C(=O)Nc2ccn(Cc3ccncc3)n2)cc1 [Example 52, 4-Cyano-N-(1-(pyridin-4-ylmethyl)-1H-pyrazol-3-yl)benzamide]",0 to 50%,0 to 50%,,
"O=S(=O)(Nc1ccn(Cc2ccncc2)n1)c1ccccc1 [Example 70, N-(1-(Pyridin-4-ylmethyl)-1H-pyrazol-3-yl)benzenesulfonamide]",,,,inhibition at 50 µM (read-out: Avg NAD % inhibition at 50 μM): 51 to 100%; inhibition at 50 µM (read-out: Avg NAM % inhibition at 50 μM): 51 to 100%
"O=C(Nc1ccn(Cc2ccncc2)n1)c1ccc(O)c(O)c1 [Example 73, 3,4-Dihydroxy-N-(1-(pyridin-4-ylmethyl)-1H-pyrazol-3-yl)benzamide]",51 to 100%,,,
"FC(F)(F)CNc1ccn(Cc2ccncc2)n1 [Example 26, 1-(Pyridin-4-ylmethyl)-N-(2,2,2-trifluoroethyl)-1H-pyrazol-3-amine]",0 to 50%,0 to 50%,10 to 100 µM,
"O=C(Nc1ccn(Cc2ccncc2)n1)C1COc2ccccc2C1 (stereo not shown) [Example 63, N-(1-(Pyridin-4-ylmethyl)-1H-pyrazol-3-yl)chromane-3-carboxamide]",,,1 to 10 µM,
"CC(c1ccncc1)n1ccc(CC(F)F)n1 (racemic) [Example 107, (rac)-4-{1-[3-(2,2-Difluoroethyl)-1H-pyrazol-1-yl]ethyl}pyridine]",,,1 to 10 µM,
"CCCNc1ccn(Cc2ccncc2)n1 [Example 94, N-Propyl-1-(pyridin-4-ylmethyl)-1H-pyrazol-3-amine]",0 to 50%,0 to 50%,,
"[2H]C([2H])([2H])C(c1ccncc1)c1ccn(CC(F)F)n1 (racemic) [Example 25, (rac)-4-(1-(1-(2,2-Difluoroethyl)-1H-pyrazol-3-yl)ethyl-2,2,2-d3)pyridine]",,,1 to 10 µM,

Compound,inhibition at 50 µM [1],inhibition at 50 µM [2],IC50,other results
"(R)-3-Chloro-4-(1-(1-(2,2,2-trifluoroethyl)-1H-pyrazol-3-yl)ethyl)pyridine and (S)-3-Chloro-4-(1-(1-(2,2,2-trifluoroethyl)-1H-pyrazol-3-yl)ethyl)pyridine [Example 113]",,,1 to 10 µM,
"FC(F)Cc1ccn(Cc2ccncc2)n1 [Example 102, 4-{[3-(2,2-Difluoroethyl)-1H-pyrazol-1-yl]methyl}pyridine]",,,1 to 10 µM,
"[2H]C([2H])([2H])C([2H])(c1ccncc1)c1ccn(CC(F)(F)F)n1 (racemic) [Example 80, (rac)-4-(1-(1-(2,2,2-Trifluoroethyl)-1H-pyrazol-3-yl)ethyl-1,2,2,2-d4)pyridine]",,,< 1 µM,
"CC1(C)Oc2ccc(C(=O)Nc3ccn(Cc4ccncc4)n3)cc2O1 [Example 72, 2,2-Dimethyl-N-(1-(pyridin-4-ylmethyl)-1H-pyrazol-3-yl)benzo[d][1,3]dioxole-5-carboxamide]",0 to 50%,0 to 50%,,
"FC(F)CNc1ccn(Cc2ccncc2)n1 [Example 3, N-(2,2-Difluoroethyl)-1-(pyridin-4-ylmethyl)-1H-pyrazol-3-amine]",,,1 to 10 µM,
"O=C(Nc1ccn(Cc2ccncc2)n1)c1ccc2c(c1)OCCO2 [Example 37, N-(1-(Pyridin-4-ylmethyl)-1H-pyrazol-3-yl)-2,3-dihydrobenzo[b][1,4]dioxine-6-carboxamide]",0 to 50%,0 to 50%,,
"O=C(Nc1ccn(Cc2ccncc2)n1)c1ccc2c(c1)OCC2 [Example 38, N-(1-(Pyridin-4-ylmethyl)-1H-pyrazol-3-yl)-2,3-dihydrobenzofuran-6-carboxamide]",,,1 to 10 µM,
"FC(F)(F)Cn1ccc(C(Cl)c2ccncc2)n1 (racemic) [Example 81, (rac)-4-(Chloro(1-(2,2,2-trifluoroethyl)-1H-pyrazol-3-yl)methyl)pyridine]",,,10 to 100 µM,
"CC(c1ccncc1)c1ccn(Cc2ccccc2)n1 (racemic) [Example 92, (rac)-4-(1-(1-Benzyl-1H-pyrazol-3-yl)ethyl)pyridine]",,,10 to 100 µM,
"c1cc(Cn2ccc(NCC3CCC3)n2)ccn1 [Example 95, N-(Cyclobutylmethyl)-1-(pyridin-4-ylmethyl)-1H-pyrazol-3-amine]",0 to 50%,0 to 50%,,
"CCC(c1ccncc1)n1ccc(NCC(F)(F)F)n1 (racemic) [Example 99, (rac)-1-(1-(Pyridin-4-yl)propyl)-N-(2,2,2-trifluoroethyl)-1H-pyrazol-3-amine]",,,10 to 100 µM,
"O=C(Nc1ccn(Cc2ccncc2)n1)c1ccccc1F [Example 58, 2-Fluoro-N-(1-(pyridin-4-ylmethyl)-1H-pyrazol-3-yl)benzamide]",0 to 50%,0 to 50%,,
"CC(c1ccncc1)n1ccc(NC(=O)c2ccc3c(c2)OCO3)n1 (racemic) [Example 19, (rac)-N-(1-(1-(Pyridin-4-yl)ethyl)-1H-pyrazol-3-yl)benzo[d][1,3]dioxole-5-carboxamide]",,,1 to 10 µM,
"(R)-4-(1-(1-(2,2-Difluoroethyl)-1H-pyrazol-3-yl)ethyl)pyridine and (S)-4-(1-(1-(2,2-Difluoroethyl)-1H-pyrazol-3-yl)ethyl)pyridine [Example 110]",,,10 to 100 µM,
"Cc1cnccc1Cc1ccn(CC(F)(F)F)n1 [Example 23, 3-Methyl-4-((1-(2,2,2-trifluoroethyl)-1H-pyrazol-3-yl)methyl)pyridine]",,,1 to 10 µM,
"C[C@H](c1ccn(CC(F)(F)F)n1)c1ccncc1Cl (single isomer, unassigned) [Example 113a]",,,1 to 10 µM,
